Test results: the CheMixHub ionic liquid set

Experiment: xn = mol fraction of the nth substance listed
Conditions: 298.15 K, 101 kPa

O=P([O-])(O)O.[Na+] + CCCCCCCCCCCC[N+](C)(C)C.[Br-] + O
Conditions	electrical conductivity [S/m]
x2 = 0, x1 = 0.0001802	0.1015
x2 = 0, x1 = 0.001799	0.7566
x2 = 3.79e-06, x1 = 0.0001802	0.1031
x2 = 5.64e-06, x1 = 0.001799	0.7559
x2 = 7.76e-06, x1 = 0.0001802	0.1049
x2 = 1.11e-05, x1 = 0.001799	0.7567
x2 = 1.317e-05, x1 = 0.0001802	0.1075
x2 = 1.858e-05, x1 = 0.0001802	0.1101
x2 = 1.893e-05, x1 = 0.001799	0.7581
x2 = 2.345e-05, x1 = 0.0001802	0.1124
x2 = 2.603e-05, x1 = 0.001799	0.7597
x2 = 3.427e-05, x1 = 0.0001802	0.1175
x2 = 3.55e-05, x1 = 0.001799	0.7617
x2 = 4.401e-05, x1 = 0.0001802	0.1222
x2 = 4.714e-05, x1 = 0.001799	0.7635
x2 = 5.411e-05, x1 = 0.0001802	0.127
x2 = 5.843e-05, x1 = 0.001799	0.766
x2 = 6.457e-05, x1 = 0.0001802	0.132
x2 = 6.953e-05, x1 = 0.001799	0.7685
x2 = 7.467e-05, x1 = 0.0001801	0.1368
x2 = 8.082e-05, x1 = 0.001799	0.771
x2 = 8.477e-05, x1 = 0.0001801	0.1416
x2 = 9.228e-05, x1 = 0.001799	0.7738
x2 = 9.541e-05, x1 = 0.0001801	0.1467
x2 = 0.0001034, x1 = 0.001799	0.777
x2 = 0.0001055, x1 = 0.0001801	0.1516
x2 = 0.0001145, x1 = 0.001799	0.7803
x2 = 0.0001154, x1 = 0.0001801	0.1563
x2 = 0.0001255, x1 = 0.0001801	0.161
x2 = 0.0001258, x1 = 0.001799	0.7836
x2 = 0.0001363, x1 = 0.001799	0.7867
x2 = 0.0001371, x1 = 0.0001801	0.1667
x2 = 0.0001469, x1 = 0.001798	0.7899
x2 = 0.0001488, x1 = 0.0001801	0.1723
x2 = 0.0001578, x1 = 0.001798	0.793
x2 = 0.0001602, x1 = 0.0001801	0.1777
x2 = 0.0001687, x1 = 0.001798	0.7962
x2 = 0.0001715, x1 = 0.0001801	0.1831
x2 = 0.0001796, x1 = 0.001798	0.7996
x2 = 0.0001829, x1 = 0.0001801	0.1884
x2 = 0.0001905, x1 = 0.001798	0.8028
x2 = 0.0001941, x1 = 0.0001801	0.1937
x2 = 0.0002011, x1 = 0.001798	0.8057
x2 = 0.0002054, x1 = 0.0001801	0.1991
x2 = 0.0002117, x1 = 0.001798	0.8081
x2 = 0.0002166, x1 = 0.0001801	0.2043
x2 = 0.0002224, x1 = 0.001798	0.8103
x2 = 0.0002276, x1 = 0.0001801	0.2096
x2 = 0.0002326, x1 = 0.001798	0.8125
x2 = 0.0002384, x1 = 0.0001801	0.2146
x2 = 0.0002431, x1 = 0.001798	0.8147
x2 = 0.0002492, x1 = 0.0001801	0.2196
x2 = 0.0002537, x1 = 0.001798	0.8169
x2 = 0.0002601, x1 = 0.0001801	0.2239
x2 = 0.0002641, x1 = 0.001798	0.8191
x2 = 0.0002692, x1 = 0.0001801	0.2266
x2 = 0.0002744, x1 = 0.001798	0.8212
x2 = 0.0002795, x1 = 0.0001801	0.2291
x2 = 0.0002848, x1 = 0.001798	0.8234
x2 = 0.0002918, x1 = 0.0001801	0.2316
x2 = 0.0003062, x1 = 0.0001801	0.234
x2 = 0.0003222, x1 = 0.0001801	0.2367
x2 = 0.0003394, x1 = 0.0001801	0.2394
x2 = 0.000366, x1 = 0.0001801	0.2432
x2 = 0.0003922, x1 = 0.0001801	0.2467
